Assays:
Format in all cases: cell-based
[1] = target: T1, hAT1R (Homo sapiens, UniProt P30556); assay: BRET β-arrestin2 biosensor assay, higher receptor expression (hAT1R 5 ng/well), HEK293 cells; settings: for EC50: High AT1R Expression
T1 sequence (P30556 1-359): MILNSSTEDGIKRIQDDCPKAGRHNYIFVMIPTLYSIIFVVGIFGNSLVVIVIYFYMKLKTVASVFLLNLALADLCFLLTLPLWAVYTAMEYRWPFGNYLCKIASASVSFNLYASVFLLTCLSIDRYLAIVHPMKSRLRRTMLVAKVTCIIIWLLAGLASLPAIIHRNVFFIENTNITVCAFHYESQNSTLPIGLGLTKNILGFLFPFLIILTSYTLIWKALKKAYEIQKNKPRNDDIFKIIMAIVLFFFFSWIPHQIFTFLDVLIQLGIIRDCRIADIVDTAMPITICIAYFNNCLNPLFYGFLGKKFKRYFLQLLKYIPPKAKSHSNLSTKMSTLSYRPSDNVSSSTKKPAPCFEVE

[2] = target: T1, hAT1R; assay: BRET Gq biosensor assay, agonist response, HEK293 cells; settings: section of the 42nd table directly before the BRET P63 section
In short: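 Agonist EC50 derived from a 4-parameter fit of BRET2 ratio (GFP 515 nm/Rluc 410 nm), scaled between unstimulated control and maximal AngII response. Readings taken 5 min after compound addition at room temperature, with 2 μM coelenterazine, in HEK293 cells expressing hAT1R, Gαq-Rluc, Gβ1 and GFP-Gγ1 (transfected two days earlier).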

[3] = target: T2, AGTR1 (Homo sapiens, UniProt P30556); assay: DiscoveRx β-arrestin2 recruitment assay (enzyme complementation, Pathunter CHO-K1 AGTR1 β-arrestin cell line); settings: DiscoveRx β-arrestin2 recruitment
T2 construct: host or cells: Pathunter CHO-K1 AGTR1 β-arrestin cell line (CHO-K1)
T2 sequence (P30556 1-359): T1 sequence (P30556 1-359)
In short: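 Chemiluminescent enzyme-complementation read-out of β-arrestin2 recruitment to AGTR1 in engineered CHO-K1 cells after 90 min compound exposure at 37° C. Values are 4-parameter logistic EC50s in agonist mode, IC50s in antagonist mode, with efficacy relative to the maximal All response.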

CCCCc1nc(Cl)c(C(=O)O)n1Cc1ccc(-c2cc(-c3ccc(C(=O)N(C)C)cc3)ccc2-c2noc(=O)[nH]2)cc1 [Example 409]
BRET β-Arrestin2 High AT1R Expression Ymax (%) [1]: 88.7%
EC50 [1]: 73.2 nM
EC50 [2]: 136 nM
EC50 [3]: 59.3 nM
DiscoveRx β-arrestin2 Ymax (%) ([3]; maximal response): 50.6%

CCCCc1ncc(-c2nnc(C)o2)n1Cc1ccc(-c2cc(-c3ccccc3)ccc2-c2nn[nH]n2)cc1 [Example 413, 2-(1-((6′-(2H-tetrazol-5-yl)-[1,1′:3′,1″-terphenyl]-4-yl)methyl)-2-butyl-1H-imidazol-5-yl)-5-methyl-1,3,4-oxadiazole]
BRET β-Arrestin2 High AT1R Expression Ymax (%) [1]: 47.5%
EC50 [1]: 55.6 nM
EC50 [2]: 351 nM
EC50 [3]: 21.8 nM
DiscoveRx β-arrestin2 Ymax (%) ([3]; maximal response): 16.3%

CCCCc1ncc(C(=O)NCCO)n1Cc1ccc(-c2cc(-c3ccccc3)ccc2C(=O)O)cc1 [Example 414]
BRET β-Arrestin2 High AT1R Expression Ymax (%) [1]: 36.4%
EC50 [1]: 505 nM
EC50 [2]: 460 nM
EC50 [3]: 166 nM
DiscoveRx β-arrestin2 Ymax (%) ([3]; maximal response): 21.5%

CCCCc1ncc(C(=O)O)n1Cc1ccc(-c2cc(-c3ccccc3)ccc2C(=O)O)cc1 [Example 415]
BRET β-Arrestin2 High AT1R Expression Ymax (%) [1]: 26.8%
EC50 [1]: 206 nM
EC50 [2]: 487 nM
EC50 [3]: 111 nM
DiscoveRx β-arrestin2 Ymax (%) ([3]; maximal response): 29.3%

CCCCc1nc(Cl)c(C(=O)O)n1Cc1ccc(-c2cc(N3CCCC(F)(F)C3)ccc2-c2nn[nH]n2)cc1 [Example 416, 2-butyl-4-chloro-1-((5′-(3,3-difluoropiperidin-1-yl)-2′-(2H-tetrazol-5-yl)-[1,1′-biphenyl]-4-yl)methyl)-1H-imidazole-5-carboxylic acid]
BRET β-Arrestin2 High AT1R Expression Ymax (%) [1]: 69.0%
EC50 [1]: 115 nM
EC50 [2]: > 100000 nM
EC50 [3]: 18 nM
DiscoveRx β-arrestin2 Ymax (%) ([3]; maximal response): 29.5%

CCCCc1nc(Cl)c(C(=O)O)n1Cc1ccc(-c2cc(-c3cccc(C(F)F)n3)ccc2-c2nn[nH]n2)cc1 [Example 423, 2-butyl-4-chloro-1-((5′-(6-(difluoromethyl)pyridin-2-yl)-2′-(2H-tetrazol-5-yl)-[1,1′-biphenyl]-4-yl)methyl)-1H-imidazole-5-carboxylic acid]
BRET β-Arrestin2 High AT1R Expression Ymax (%) [1]: 73.3%
EC50 [1]: 26 nM
EC50 [2]: 25.4 nM
EC50 [3]: 22.9 nM
DiscoveRx β-arrestin2 Ymax (%) ([3]; maximal response): 22.8%

CCCCC(=O)N(Cc1ccc(-c2cc(-c3ccccc3)ccc2-c2nn[nH]n2)nc1)[C@H](C(=O)O)C(C)C [Example 430]
BRET β-Arrestin2 High AT1R Expression Ymax (%) [1]: 78.9%
EC50 [1]: 70.4 nM
EC50 [2]: 275 nM
DiscoveRx β-arrestin2 Ymax (%) [3]: 55.2%
EC50 [3]: 33.2 nM

CCCCC(=O)N(Cc1ccc(-c2cc(-c3ccccc3)ccc2-c2nn[nH]n2)cn1)[C@H](C(=O)O)C(C)C [Example 431]
BRET β-Arrestin2 High AT1R Expression Ymax (%) [1]: 92.7%
EC50 [1]: 1590 nM
EC50 [2]: 910 nM
DiscoveRx β-arrestin2 Ymax (%) [3]: 26.0%
EC50 [3]: 194 nM

CCCC(=O)N(Cc1ccc(-c2cc(-c3ccccc3)ccc2-c2nn[nH]n2)nc1)[C@H](C(=O)O)C(C)C [Example 432]
BRET β-Arrestin2 High AT1R Expression Ymax (%) [1]: 88.4%
EC50 [1]: 163 nM
EC50 [2]: 286 nM
DiscoveRx β-arrestin2 Ymax (%) [3]: 42.9%
EC50 [3]: 40.1 nM

CC(C)CCC(=O)N(Cc1ccc(-c2cc(-c3ccccc3)ccc2-c2nn[nH]n2)nc1)[C@H](C(=O)O)C(C)C [Example 433]
BRET β-Arrestin2 High AT1R Expression Ymax (%) [1]: 92.4%
EC50 [1]: 115 nM
EC50 [2]: 581 nM
DiscoveRx β-arrestin2 Ymax (%) [3]: 49.6%
EC50 [3]: 59.1 nM

CCCCC(=O)N(Cc1ccc(-c2cc(-c3ccccc3)ccc2-c2noc(=O)[nH]2)nc1)[C@H](C(=O)O)C(C)C [Example 434, (S)-3-Methyl-2-(N-((6-(4-(5-oxo-4,5-dihydro-1,2,4-oxadiazol-3-yl)-[1,1′-biphenyl]-3-yl)pyridin-3-yl)methyl)pentanamido)butanoic acid 2,2,2-trifluoroacetate]
BRET β-Arrestin2 High AT1R Expression Ymax (%) [1]: 96.6%
EC50 [1]: 316 nM
EC50 [2]: 1280 nM
DiscoveRx β-arrestin2 Ymax (%) [3]: 40.9%
EC50 [3]: 72 nM
